Legend:
[1] = test system: SFRP1, DACT1, DACT2, DACT3; test: RT-PCR analysis of SFRP1 and DACT1, 2 and 3 after 5-AzaC; type: cell-based, human; settings: HCT116 cells, 5-AzaC 5 μM for 3 days
Source text: (§1) A: Hierarchical clustering of Wnt inhibitors (upper) and Wnt/β-catenin target genes (lower) in human colorectal tumors (T) and matched normal mucosa (N). White signals in the upper panel indicate above-mean expression; white signals in the lower panel indicate below-mean expression. B: RT-PCR analysis of SFRP1 and DACT1, 2 and 3 from random-selected 8 pairs of human colorectal tumor and matched mucosa. C: Methylation status of SFRP1 and DACT3 in 8 tumors determined by methylation specific PCR (MSP) assay. M1, M2, M3 and M4 represent the examined PCR regions covering the entire CpG island of DACT3 promoter. D: RT-PCR analysis of SFRP1 and DACT1, 2 and 3 in a panel of colorectal cancer cell lines compared to the normal tissue. E: Methylation status of SFRP1 and DACT1, 2 and 3 in colorectal cancer cell lines. F: Determination of methylation status of CpG sites by sequencing of bisulphite-modified DNA from normal and colorectal cancer cell lines. Arrows indicate the transcription start sites. Open cycles represent unmethylated CpGs; closed cycles denote methylated CpGs. G: MSP analysis of DACT1, 2 and 3 promoters in HCT116 cells untreated or treated with 5-AzaC and in HCT116-DNMT1/DNMT3b−/− (DKO) cells. H: RT-PCR analysis of SFRP1 and DACT1, 2 and 3 in HCT116 and DLD1 cells treated with 5-AzaC (5 μM) for 3 days and in DKO cells. […]

[2] = test system: DACT1 and DACT2 promoters; test: Methylation specific PCR (MSP) of DACT promoters after 5-AzaC; type: cell-based, human; settings: HCT116 cells
Source text: as §1, with “CpGs.” for “CpGs. G: MSP analysis of DACT1, 2 and 3 promoters in HCT116 cells untreated or treated with 5-AzaC and in HCT116-DNMT1/DNMT3b−/− (DKO) cells. H: RT-PCR analysis of SFRP1 and DACT1, 2 and 3 in HCT116 and DLD1 cells treated with 5-AzaC (5 μM) for 3 days and in DKO cells.”
The CpG island DNA methylation status was determined by PCR analysis after bisulfited modification and followed by methylation-specific PCR (MSP) and bisulfite genomic sequencing (BGS) (Yoshikawa, H., et al., Nat Genet (2001) 28, 29-35). […]

in vivo = settings: BALB/c nude, mouse, ip
histone modifications = test: Immunoblotting of bulk histone modifications in HT29 and SW480 cells; type: cell-based, human
Description: FIG. 5. Effects of combination of DZNep and TSA on DACT3 and histone modifications. A: DACT3 mRNA expression analysis using Illumina Beadarray in DLD1 cells treated with 5 μM DZNep, 5 μM 5-AzaC, 200 nM TSA or their combinations. The data shown represents Mean±SD of three independent experiments. B: Indicated colorectal cancer cell lines were treated with DZNep, TSA or both. RNA was harvested and subjected to array analysis (1: DCAT2, 2: DACT2, 3: DCAT3, 4: DKK4, 5: DKK3, 6: DKKL1, 7: DKK2, 8: DKK3, 9: DKK1, 10: SFRP4, 11: SFRP2, 12: SFRP5, 13: SFRP3, 14: SFRP1). Changes of expression of known Wnt/β-catenin antagonists are shown. C: Immunoblotting analysis of bulk histone modifications induced by DZNep, TSA or both in HT29 cells and SW480 cells. D: ChIP analysis of indicated the changes of histone marks at the DACT1 and DACT3 loci in HT29 cells untreated (white bars) or treated with DZNep and TSA (black bars). The values represent the normalized enrichments against the changes of a low background region before and after the drug treatment. The data represent Mean±SD of three independent experiments.
Human tissue samples were obtained from Singapore Tissue Network using protocols approved by institutional Review Board of National University of Singapore; informed consent was obtained from each individual who provided the tissues. The colorectal cancer cell lines and non-transformed cell lines used in this study were purchased from the American Type Culture Collection (Manassas, Va.). HCT116 cells with genetic disruption of DNMT1 (DNA methyltransferase 1) and DNMT3B (DNA methyltransferase 3B) (HCT116 DKO) were kindly provided by Dr. Bert Vogelstein (Johns Hopkins University, MD). For drug treatment, cells were seeded the day before the drug treatment. Cells were treated with 5 μM 3-Deazaneplanocin A (DZNep) (obtained from Dr. Victor E. Marquez at National Cancer Institute, USA) or 5 μM 5-aza-2′-deoxycytidine (5-AzaC; Sigma) for 72 hours and Trichostatin A (TSA; Cell Signaling) at 100-200 nM for 24 hours. […]

[3] = test system: polycomb-repressive complex 2; settings: Tan et al., 2007; cited from earlier work
[4] = Initial maximum tolerated dose (MTD) study of DZNep
DACT3, DVL2, β-catenin = test: Immunoblot analysis of DACT3, DVL2 and β-catenin in SW480 and DLD1 cells; type: cell-based, human; settings: DZNep 5 μM, TSA 100 nM
Description: FIG. 6. Combination of DZNep and TSA results in blockade of Wnt/β-catenin signaling and massive apoptosis in colorectal cancer cells. A: Immunoblot analysis of DACT3, DVL2, total β-catenin, and non-phosphorylated β-catenin (Active-β-catenin) in SW480 and DLD1 cells treated with DZNep (5 μM), TSA (100 nM) or both. B: Immunofluorescent images of DLD1 and SW480 cells treated with DZNep/TSA. β-catenin staining is red, nuclear staining is green (DRAQ5). C: Indicated colorectal cancer cell lines were treated as above; RNA was harvested and subjected to array analysis. Changes of expression of known Wnt/β-catenin target genes were shown using gene clustering program. […] D: Numeric values of data depicted in FIG. 6C (D+T=DZNep+TSA). E: DLD1 and HT29 cells were treated as in A, and cell death was determined by PI staining and FACS analysis. The data represent Mean±SD of three independent experiments. F: HT29 cells were treated as in A, and Caspase 3 activity was measured by FACS analysis. G: HT29 cells were treated as in A, followed by JC-1 staining and FACS analysis.
Human tissue samples were obtained from Singapore Tissue Network using protocols approved by institutional Review Board of National University of Singapore; informed consent was obtained from each individual who provided the tissues. The colorectal cancer cell lines and non-transformed cell lines used in this study were purchased from the American Type Culture Collection (Manassas, Va.). HCT116 cells with genetic disruption of DNMT1 (DNA methyltransferase 1) and DNMT3B (DNA methyltransferase 3B) (HCT116 DKO) were kindly provided by Dr. Bert Vogelstein (Johns Hopkins University, MD). For drug treatment, cells were seeded the day before the drug treatment. Cells were treated with 5 μM 3-Deazaneplanocin A (DZNep) (obtained from Dr. Victor E. Marquez at National Cancer Institute, USA) or 5 μM 5-aza-2′-deoxycytidine (5-AzaC; Sigma) for 72 hours and Trichostatin A (TSA; Cell Signaling) at 100-200 nM for 24 hours. For 5-AzaC treatment, the medium was replaced with freshly added 5-AzaC for every 24 h. For co-treatment of cells with DZNep and TSA, DZNep was added for 24 hours followed by TSA for additional 24 hours for gene expression analysis and 48 hours for FACS analysis.
Immunoblotting was performed as described previously (Tan et al., 2007, supra). The blots were probed with the following antibodies: anti-H3K27me3 (07-449), anti-H3K9me3 (07-442), anti-H3K9/K14 ac (06-599), anti-H3K4me3 (07-473) and anti-active β-catenin(05-665), were purchased from Upstate. Anti-H4K20me3 (ab9053) was from Abcam. Anti-β-catenin (6B3) and anti-H3 (3H1) were from Cell Signaling and anti-DVL2 (sc-8026) was from Santa Cruz. […]

[5] = type: in vivo
Description: FIG. 16. […]. The body weight was maintained at >80% in all groups. […].
For the HCT-116 study, nude mice that had received HCT-116 xenografts at day −7 were assigned into 4 groups of 7 animals each, and drug treatment was initiated on day 0 (see FIG. 1 for protocol outline): Group 1—vehicle control for both used compounds (Saline i.p. 3×/week in the morning, MC/Tween p.o. q.d. in the afternoon); Group 2—SAHA (200 mg/kg q.d. p.o. in the afternoon, plus the DZNep vehicle Saline 3/week i.p. in the morning); […]. The study was terminated on Day +14.
The study was conducted as using the protocol described in FIG. 15. The combination study was started using four groups of BALB/c nude mice bearing HCT-116 tumors (n=7 mice/group, initial mean tumor volume 6 days after inoculation: 91-107 mm^3). […]

Question: With `Nc1ncn([C@H]2C[C@H](O)[C@@H](CO)O2)c(=O)n1` [5-AzaC, 5-aza-2′-deoxycytidine] as the compound, how does the “expression of SFRP1, DACT1, DACT2 and DACT3” value [1] read?
Answer: increased expression of SFRP1, DACT1 and DACT2, but not DACT3

Question: What about the “methylation at the DACT1 and DACT2 promoters” value [2] of the same compound?
Answer: decreased methylation

Question: What does the source list for `Nc1nccc2c1ncn2C1C=C(CO)C(O)C1O` (stereo not drawn) [DZNep, 5-(4-amino-1H-imidazo[4,5-c]pyridin-1-yl)-3-(hydroxymethyl)-3-cyclopentene-1,2-diol]?
Answer: MTD at 5 day (in vivo): 10 mg/kg; H3K4me3 (bulk histone, Western blot) (histone modifications): slight decrease; H3K9me3 (bulk histone, Western blot) (histone modifications): little effect; H3K27me3 and H4K20me3 (bulk histone, Western blot) (histone modifications): strong reduction; effect on polycomb-repressive complex 2 and histone methylation [3]: depletes components of the polycomb-repressive complex 2 and inhibits histone methylation; highest weight loss ([4]; 10 mg/kg group, day 2): 2.2%; deaths ([4]; 15 mg/kg group, day 3, in the absence of significant weight loss): Two of three mice died; DACT3 protein levels (DACT3, DVL2, β-catenin): did not cause such changes; DVL2 levels (DACT3, DVL2, β-catenin): did not cause such changes

Question: With `O=C(CCCCCCC(=O)Nc1ccccc1)NO` [SAHA, N′-hydroxy-N-phenyl-octanediamide] as the compound, how does the “treatment-related death (TRD)” value ([5]; day 10, body weight 82%, n=7/group) read?
Answer: 1

Question: And the body weight ([5]; day 14, DZNep 5 mg/kg i.p. 3×/week, SAHA 200 mg/kg p.o. q.d., HCT-116 tumour-bearing mice)?
Answer: 96.8%

Question: For `CC(/C=C/C(=O)NO)=C\[C@@H](C)C(=O)c1ccc(N(C)C)cc1` [TSA, 7-[R-(E,E)]-[4-(dimethylamino)phenyl]-N-hydroxy-4,6-dimethyl-7-oxo-2,4-heptadienamide, reference compound], which DACT3 protein levels (DACT3, DVL2, β-catenin) is on record?
Answer: did not cause such changes

Question: What about the DVL2 levels (DACT3, DVL2, β-catenin) of the same compound?
Answer: did not cause such changes

Reference: patent US8969313B2, “Methods and compounds for preventing and treating a tumour” (Agency for Science, Technology and Research, priority 2007, dated 2015)
